These results are taken from patent publication US9073821B2, “Hydroxamic acid derivative” (priority 2010, dated 2015).

Each structure is given as a SMILES string. pIC50: −log10 of the molar value.

The target in one experiment is Pseudomonas aeruginosa LpxC enzyme (Pseudomonas aeruginosa (strain ATCC 15692 / DSM 22644 / CIP 104116 / JCM 14847 / LMG 12228 / 1C / PRS 101 / PAO1), UniProt P47205). Kind of experiment: biochemical. It counts as biochemical. The conditions noted are these: class symbols A/B/C by IC50; Table 3; read-out: Enzyme inhibitory activity (inhibitory activity on Pseudomonas aeruginosa LpxC enzyme).
As for `CNC(=O)C(C(=O)NO)N(C)C(=O)c1ccc(C#Cc2ccc(CN3CCCC(C)(C)C3)cc2)cc1` (stereo not drawn) [Compound 513, 2-[{[4-({4-[(3,3-dimethylpiperidin-1-yl)methyl]phenyl}ethynyl)phenyl]carbonyl}(methyl)amino]-N-hydroxy-N′-methylpropanediamide], the pIC50 was > 8.00.

The same experiment, now with this note: inhibitory activity on Pseudomonas aeruginosa LpxC enzyme, class symbols A/B/C; read-out: Enzyme inhibitory activity.
`CNC(=O)C(C(=O)NO)N(C)C(=O)c1ccc(C#Cc2ccc(CN3CCC(OC)CC3)cc2)cc1` (stereo not drawn) [Compound 383, N-hydroxy-2-[{[4-({4-[(4-methoxypiperidin-1-yl)methyl]phenyl}ethynyl)phenyl]carbonyl}(methyl)amino]-N′-methylpropanediamide]: the pIC50 is > 8.00.

Take `O=C(NC(C(=O)NO)C(=O)NCc1cncs1)c1ccc(-c2ccc(OCCO)cc2)cc1` (stereo not drawn) [Compound 11, N-hydroxy-2-({[4′-(2-hydroxyethoxy)biphenyl-4-yl]carbonyl}amino)-N′-(1,3-thiazol-5-ylmethyl)propanediamide]: the pIC50 is > 8.00.

`CNC(=O)C(C(=O)NO)N(C)C(=O)c1ccc(-c2ccc(NCc3cccnc3)cc2)cc1` (stereo not drawn) [Compound 65, N-hydroxy-N′-methyl-2-[methyl({4′-[(pyridin-3-ylmethyl)amino]biphenyl-4-yl}carbonyl)amino]propanediamide]: the pIC50 was > 8.00.

Turning to `CNC(=O)C(C(=O)NO)N(C)C(=O)c1ccc(C#Cc2ccc3c(c2)CN(C2CC2)C3)cc1` (stereo not drawn) [Compound 385, 2-[({4-[(2-cyclopropyl-2,3-dihydro-1H-isoindol-5-yl)ethynyl]phenyl}carbonyl)(methyl)amino]-N-hydroxy-N′-methylpropanediamide], the pIC50 is > 8.00.

Take `CNC(=O)C(C(=O)NO)N(C)C(=O)c1ccc(-c2ccc(OCCN3CCOCC3)cc2)cc1` (stereo not drawn) [Compound 243, N-hydroxy-N′-methyl-2-[methyl({4′-[2-(morpholin-4-yl)ethoxy]biphenyl-4-yl}carbonyl)amino]propanediamide]: the pIC50 was 7.00 to 8.00.

As for `CNC(=O)C(C(=O)NO)N(C)C(=O)c1ccc(-c2ccc(NCCCCO)cc2)cc1` (stereo not drawn) [Compound 20, N-hydroxy-2-[({4′-[(4-hydroxybutyl)amino]biphenyl-4-yl}carbonyl)(methyl)amino]-N′-methylpropanediamide], the pIC50 was 7.00 to 8.00.

For `CNC(=O)C(C(=O)NO)N(C)C(=O)c1ccc(C#Cc2ccc(NCCO)cc2)cc1` (stereo not drawn) [Compound 183, N-hydroxy-2-{[4-({4-[(2-hydroxyethyl)amino]phenyl}ethynyl)benzoyl](methyl)amino}-N′-methylpropanediamide], the pIC50 was > 8.00.

Regarding `CNC(=O)C(C(=O)NO)N(C)C(=O)c1ccc(-c2ncccn2)cc1` (stereo not drawn) [Compound 311, N-hydroxy-N′-methyl-2-(methyl {[4-(pyrimidin-2-yl)phenyl]carbonyl}amino)propanediamide], the pIC50 was < 7.00.

As for `CNC(=O)C(C(=O)NO)N(C)C(=O)c1ccc(CCc2ccc(NCCO)cc2)cc1` (stereo not drawn) [Compound 176, N-hydroxy-2-{[4-(2-{4-[(2-hydroxyethyl)amino]phenyl}ethyl)benzoyl](methyl)amino}-N′-methylpropanediamide], the pIC50 is > 8.00.

On to `CNC(=O)C(C(=O)NO)N(C)C(=O)c1ccc(-c2ccsc2)cc1` (stereo not drawn) [Compound 292, N-hydroxy-N′-methyl-2-(methyl {[4-(thiophen-3-yl)phenyl]carbonyl}amino)propanediamide], for which the pIC50 is 7.00 to 8.00.

Turning to `CNC(=O)C(C(=O)NO)N(C)C(=O)c1ccc(C#Cc2ccc(C3(N)CC3)cc2)cc1` (stereo not drawn) [Compound 394, 2-{[(4-{[4-(1-aminocyclopropyl)phenyl]ethynyl}phenyl)carbonyl](methyl)amino}-N-hydroxy-N′-methylpropanediamide], the pIC50 is 7.00 to 8.00.

On to `CNC(=O)C(C(=O)NO)N(C)C(=O)c1ccc(-c2ccc3[nH]ccc3c2)cc1` (stereo not drawn) [Compound 201, N-hydroxy-2-{[4-(1H-indol-5-yl)benzoyl](methyl)amino}-N′-methylpropanediamide], for which the pIC50 is > 8.00.

With `CNC(=O)C(C(=O)NO)N(C)C(=O)c1ccc(-c2ccc(NCCCN3CCOCC3)cc2)cc1` (stereo not drawn) [Compound 86, N-hydroxy-N′-methyl-2-{methyl[(4′-{[3-(morpholin-4-yl)propyl]amino}biphenyl-4-yl)carbonyl]amino}propanediamide], the pIC50 was 7.00 to 8.00.

As to `CNC(=O)[C@@](C)(C(=O)NO)N(C)C(=O)c1ccc(C#Cc2ccc(CCN3CCCOCC3)cc2)cc1` [Compound 438, (2S)-N-hydroxy-N′,2-dimethyl-2-{methyl[4-({4-[2-(1,4-oxazepan-4-yl)ethyl]phenyl}ethynyl)benzoyl]amino}propanediamide], the pIC50 is > 8.00.

Regarding `CNC(=O)C(C(=O)NO)N(C)C(=O)c1ccc(-c2ccccc2F)cc1` (stereo not drawn) [Compound 59, 2-{[(2′-fluorobiphenyl-4-yl)carbonyl](methyl)amino}-N-hydroxy-N′-methylpropanediamide], the pIC50 was > 8.00.

Turning to `CNC(=O)C(C(=O)NO)N(C)C(=O)c1ccc(-c2ccc(OCCCN3CCS(=O)(=O)CC3)cc2)cc1` (stereo not drawn) [Compound 289, 2-[({4′-[3-(1,1-dioxidothiomorpholin-4-yl)propoxy]biphenyl-4-yl}carbonyl)(methyl)amino]-N-hydroxy-N′-methylpropanediamide], the pIC50 was > 8.00.

In the case of `CNC(=O)C(C(=O)NO)N(C)C(=O)c1ccc(-c2ccc(NCCCN(C)Cc3ccccc3)cc2)cc1` (stereo not drawn) [Compound 97, 2-[{[4′-({3-[benzyl(methyl)amino]propyl}amino)biphenyl-4-yl]carbonyl}(methyl)amino]-N-hydroxy-N′-methylpropanediamide], the pIC50 was 7.00 to 8.00.

As for `CNC(=O)C(C(=O)NO)N(C)C(=O)c1ccc(-c2ccc3ncn(C)c3c2)cc1` (stereo not drawn) [Compound 282, N-hydroxy-N′-methyl-2-{methyl[4-(1-methyl-1H-benzimidazol-6-yl)benzoyl]amino}propanediamide], the pIC50 was 7.00 to 8.00.

On to `CNC(=O)C(C(=O)NO)N(C)C(=O)c1ccc(C#Cc2ccc(OCCN3CCOCC3)cc2)cc1` (stereo not drawn) [Compound 382, N-hydroxy-N′-methyl-2-(methyl {[4-({4-[2-(morpholin-4-yl)ethoxy]phenyl}ethynyl)phenyl]carbonyl}amino)propanediamide], for which the pIC50 is > 8.00.

Consider `CNC(=O)C(C(=O)NO)N(C)C(=O)c1ccc(-c2ccc([C@@H](C)NC(=O)OC(C)(C)C)cc2)cc1` (stereo partly drawn) [Compound 34, tert-butyl[(1R)-1-(4′-{[1-(hydroxyamino)-3-(methylamino)-1,3-dioxopropan-2-yl](methyl)carbamoyl}biphenyl-4-yl)ethyl]carbamate], for which the pIC50 is 7.00 to 8.00.

On to `CNC(=O)C(C(=O)NO)N(C)C(=O)c1ccc(-c2ccc(CCN3CCOCC3)cc2)cc1` (stereo not drawn) [Compound 236, N-hydroxy-N′-methyl-2-[methyl({4′-[2-(morpholin-4-yl)ethyl]biphenyl-4-yl}carbonyl)amino]propanediamide], for which the pIC50 was > 8.00.

In the case of `CCNC(=O)C(NC(=O)c1ccc(-c2ccc(OCCO)cc2)cc1)C(=O)NO` (stereo not drawn) [Compound 139, N-ethyl-N′-hydroxy-2-({[4′-(2-hydroxyethoxy)biphenyl-4-yl]carbonyl}amino)propanediamide], the pIC50 was 7.00 to 8.00.

For `CN(C(=O)c1ccc(-c2ccccc2)cc1)C(C(N)=O)C(=O)NO` (stereo not drawn) [Compound 186, 2-[(biphenyl-4-ylcarbonyl)(methyl)amino]-N-hydroxypropanediamide], the pIC50 is 7.00 to 8.00.
